According to patent publication US20240197695A1, “COMPOUND FOR PREVENTION OR TREATMENT OF KIDNEY DISEASE” (ONCOCROSS CO.,LTD, priority 2021, published 2024):
Like-named read-outs stand apart in the source and are kept apart here. Marks after values point to notes of the source that are not given here.

Legend:
Format in all cases: in vivo, mice (C57BL/6)
[1] = Feed intake of mice in diabetic nephrosis model; design: Feed intake, Mean: unit not given here
Description: (§1) STZ (Sigma-aldrich, S0130, 40 mg/kg b.w., in 0.1 M citrate buffer pH 4.5) was intraperitoneally administered to 9-week-old male mice (C57BL/6) once/1 day for 5 days to perform a first disease induction. After 7 weeks of the first induction, a second induction was performed using the same method as the first induction. For 5 days of an STZ administration period for the first induction, 10% sucrose was administered as drinking water. In addition, after 14 days of the second administration, blood glucose levels were confirmed to confirm the induction rate, and the induced animals were separated into groups. Experimental substances (R)-4-{(R)-1-[7-(3,4,5-trimethoxy-phenyl)-[1,6] naphthyridin-5-yloxy]-ethyl}pyrrolidin-2-one (BI-1002494) and cromolyn (OC-101) were administered orally into the stomach at 10 mL/kg using an administration syringe (sonde) before 16:00 daily for 12 weeks at a frequency of 7 days/week at doses shown in Table 1 below, and dexamethasone was orally administered as a positive control substance.

[2] = Drinking water intake of mice in diabetic nephrosis model; design: unit not given here
Description: as §1

[3] = tested on: diabetic nephrosis animal models; assay: Changes in blood glucose levels (tail vein, blood glucose level meter)
Description: as §1
Before disease induction, excluding week 9 of administration of experimental substances to mice in each group of Example 1 above, after 2 weeks after the first induction (based on a first administration date), and after 6 weeks and 2 weeks of the second induction (based on the first administration date), blood was collected from the tail vein and blood glucose levels were measured using a blood glucose level meter (Accu-Check, Roche), and fasting was performed for 4 hours from 9:30 a.m. to 1:30.

[4] = tested on: diabetic nephrosis animal models; conditions: for CRE, Mean / GLU, Mean / T-CHO, Mean: after observation period, fasted
Description: as §1
(§2) After the observation period for mice of each group in Example 1 was terminated, all surviving animals were fasted in the same manner as when measuring blood glucose levels, and then anesthetized by inhaling isoflurane, and blood was collected from the abdominal vena cava through laparotomy. After the blood collection was completed, the veins and arteries were cut under anesthesia and exsanguinated. The collected blood was left at room temperature for 30 minutes or more and then centrifuged at 3,000 rpm for 20 minutes. Thereafter, glucose, Blood urea nitrogen (BUN), and creatinine were analyzed using an automated blood biochemistry analyzer (Hitachi 3100, Hitachi Co. Ltd., Japan). Indoxyl sulfate (a substance that was mainly produced in the intestines to cause renal injury, and a substance that caused end-stage renal failure by advancing renal function damage in patients with renal failure during hemodialysis) was analyzed using LC MS/MS. In addition, blood insulin was analyzed according to a method represented by a commercial Mouse Insulin ELISA KIT (#AKRIN-011T, Sibayagi Co. Ltd., Japan).

[5] = tested on: diabetic nephrosis animal models; assay: Blood insulin (Mouse Insulin ELISA KIT) and HOMA-IR; conditions: for HOMA-IR, Mean / Insulin, Mean: after observation period, fasted
Description: as §1, §2

[6] = after induction of diabetic renal diseases

COc1cc(-c2cc3ncccc3c(O[C@H](C)[C@H]3CNC(=O)C3)n2)cc(OC)c1OC [BI-1002494, (R)-4-{(R)-1-[7-(3,4,5-trimethoxy-phenyl)-[1,6]naphthyridin-5-yloxy]-ethyl}pyrrolidin-2-one]
Feed intake compared to the disease control group ([1]; 12.5 mg/kg administered group, after week 4 of administration): statistically significantly decreased | Feed intake, Mean ([1]; 12.5 mg/kg/day oral, week 0): 6.97 | Feed intake, Mean ([1]; 12.5 mg/kg/day oral, week 1): 5.61 | Feed intake, Mean ([1]; 12.5 mg/kg/day oral, week 2): 6.23 | Feed intake, Mean ([1]; 12.5 mg/kg/day oral, week 3): 4.58 | Feed intake, Mean ([1]; 12.5 mg/kg/day oral, week 4): 5.14^# | Feed intake, Mean ([1]; 12.5 mg/kg/day oral, week 5): 4.98 | Feed intake, Mean ([1]; 12.5 mg/kg/day oral, week 6): 5.31 | Feed intake, Mean ([1]; 12.5 mg/kg/day oral, week 7): 5.21 | Feed intake, Mean ([1]; 12.5 mg/kg/day oral, week 8): 4.26 | Feed intake, Mean ([1]; 12.5 mg/kg/day oral, week 9): 4.39 | Feed intake, Mean ([1]; 12.5 mg/kg/day oral, week 10): 4.64 | Feed intake compared to the disease control group ([1]; 25 mg/kg administered group, after week 6 of administration): statistically significantly decreased | Feed intake, Mean ([1]; 25 mg/kg/day oral, week 0): 6.73 | Feed intake, Mean ([1]; 25 mg/kg/day oral, week 1): 5.63 | Feed intake, Mean ([1]; 25 mg/kg/day oral, week 2): 5.59 | Feed intake, Mean ([1]; 25 mg/kg/day oral, week 3): 5.26 | Feed intake, Mean ([1]; 25 mg/kg/day oral, week 4): 4.99 | Feed intake, Mean ([1]; 25 mg/kg/day oral, week 5): 5.15 | Feed intake, Mean ([1]; 25 mg/kg/day oral, week 6): 5.51^# | Feed intake, Mean ([1]; 25 mg/kg/day oral, week 7): 5.04 | Feed intake, Mean ([1]; 25 mg/kg/day oral, week 8): 4.95 | Feed intake, Mean ([1]; 25 mg/kg/day oral, week 9): 4.62 | Feed intake, Mean ([1]; 25 mg/kg/day oral, week 10): 4.63 | Feed intake compared to the disease control group ([1]; 50 mg/kg administered group, after week 8 of administration): statistically significantly decreased | Feed intake, Mean ([1]; 50 mg/kg/day oral, week 0): 5.98 | Feed intake, Mean ([1]; 50 mg/kg/day oral, week 1): 5.74 | Feed intake, Mean ([1]; 50 mg/kg/day oral, week 2): 4.98 | Feed intake, Mean ([1]; 50 mg/kg/day oral, week 3): 5.36 | Feed intake, Mean ([1]; 50 mg/kg/day oral, week 4): 5.14 | Feed intake, Mean ([1]; 50 mg/kg/day oral, week 5): 4.89 | Feed intake, Mean ([1]; 50 mg/kg/day oral, week 6): 5.64 | Feed intake, Mean ([1]; 50 mg/kg/day oral, week 7): 5.11 | Feed intake, Mean ([1]; 50 mg/kg/day oral, week 8): 4.86^# | Feed intake, Mean ([1]; 50 mg/kg/day oral, week 9): 4.30 | Feed intake, Mean ([1]; 50 mg/kg/day oral, week 10): 4.14 | Drinking water intake, Mean ([2]; 12.5 mg/kg/day oral, week 0): 7.80 | Drinking water intake, Mean ([2]; 12.5 mg/kg/day oral, week 1): 7.91 | Drinking water intake, Mean ([2]; 12.5 mg/kg/day oral, week 2): 7.41 | Drinking water intake, Mean ([2]; 12.5 mg/kg/day oral, week 3): 7.39 | Drinking water intake, Mean ([2]; 12.5 mg/kg/day oral, week 4): 7.38 | Drinking water intake, Mean ([2]; 12.5 mg/kg/day oral, week 5): 7.16 | Drinking water intake, Mean ([2]; 12.5 mg/kg/day oral, week 6): 7.34 | Drinking water intake, Mean ([2]; 12.5 mg/kg/day oral, week 7): 7.24 | Drinking water intake, Mean ([2]; 12.5 mg/kg/day oral, week 8): 6.99 | Drinking water intake, Mean ([2]; 12.5 mg/kg/day oral, week 9): 7.40 | Drinking water intake, Mean ([2]; 12.5 mg/kg/day oral, week 10): 7.46 | Drinking water intake, Mean ([2]; 25 mg/kg/day oral, week 0): 7.07 | Drinking water intake, Mean ([2]; 25 mg/kg/day oral, week 1): 7.62 | Drinking water intake, Mean ([2]; 25 mg/kg/day oral, week 2): 7.86 | Drinking water intake, Mean ([2]; 25 mg/kg/day oral, week 3): 7.38 | Drinking water intake, Mean ([2]; 25 mg/kg/day oral, week 4): 6.73 | Drinking water intake, Mean ([2]; 25 mg/kg/day oral, week 5): 7.19 | Drinking water intake, Mean ([2]; 25 mg/kg/day oral, week 6): 7.34 | Drinking water intake, Mean ([2]; 25 mg/kg/day oral, week 7): 7.69 | Drinking water intake, Mean ([2]; 25 mg/kg/day oral, week 8): 7.43 | Drinking water intake, Mean ([2]; 25 mg/kg/day oral, week 9): 7.54 | Drinking water intake, Mean ([2]; 25 mg/kg/day oral, week 10): 7.15 | Drinking water intake, Mean ([2]; 50 mg/kg/day oral, week 0): 7.27 | Drinking water intake, Mean ([2]; 50 mg/kg/day oral, week 1): 7.04 | Drinking water intake, Mean ([2]; 50 mg/kg/day oral, week 2): 6.07 | Drinking water intake, Mean ([2]; 50 mg/kg/day oral, week 3): 6.96 | Drinking water intake, Mean ([2]; 50 mg/kg/day oral, week 4): 7.13 | Drinking water intake, Mean ([2]; 50 mg/kg/day oral, week 5): 6.48 | Drinking water intake, Mean ([2]; 50 mg/kg/day oral, week 6): 6.93 | Drinking water intake, Mean ([2]; 50 mg/kg/day oral, week 7): 6.39 | Drinking water intake, Mean ([2]; 50 mg/kg/day oral, week 8): 6.91 | Drinking water intake, Mean ([2]; 50 mg/kg/day oral, week 9): 6.61 | Drinking water intake, Mean ([2]; 50 mg/kg/day oral, week 10): 6.22 | Blood glucose level, Mean ([3]; 12.5 mg/kg/day oral, week 0, 4 h fasting, in mg/dL (unit assumed)): 291.1 | Blood glucose level, Mean ([3]; 12.5 mg/kg/day oral, week 2, 4 h fasting, in mg/dL (unit assumed)): 319.5 | Blood glucose level, Mean ([3]; 12.5 mg/kg/day oral, week 4, 4 h fasting): 225.1^# | Blood glucose level, Mean ([3]; 12.5 mg/kg/day oral, week 6, 4 h fasting): 261.8^# | Blood glucose level, Mean ([3]; 12.5 mg/kg/day oral, week 8, 4 h fasting): 270.4^# | Blood glucose level, Mean ([3]; 12.5 mg/kg/day oral, week 10, 4 h fasting): 280.8^# | Blood glucose level, Mean ([3]; 25 mg/kg/day oral, week 0, 4 h fasting, in mg/dL (unit assumed)): 301.2 | Blood glucose level, Mean ([3]; 25 mg/kg/day oral, week 2, 4 h fasting, in mg/dL (unit assumed)): 310.1 | Blood glucose level, Mean ([3]; 25 mg/kg/day oral, week 4, 4 h fasting): 218.6^# | Blood glucose level, Mean ([3]; 25 mg/kg/day oral, week 6, 4 h fasting): 257.8^# | Blood glucose level, Mean ([3]; 25 mg/kg/day oral, week 8, 4 h fasting): 279.1^# | Blood glucose level, Mean ([3]; 25 mg/kg/day oral, week 10, 4 h fasting): 255.9^# | Blood glucose level, Mean ([3]; 50 mg/kg/day oral, week 0, 4 h fasting, in mg/dL (unit assumed)): 303.7 | Blood glucose level, Mean ([3]; 50 mg/kg/day oral, week 2, 4 h fasting, in mg/dL (unit assumed)): 264.5 | Blood glucose level, Mean ([3]; 50 mg/kg/day oral, week 4, 4 h fasting): 201.0^# | Blood glucose level, Mean ([3]; 50 mg/kg/day oral, week 6, 4 h fasting): 199.6^# | Blood glucose level, Mean ([3]; 50 mg/kg/day oral, week 8, 4 h fasting): 200.9^# | Blood glucose level, Mean ([3]; 50 mg/kg/day oral, week 10, 4 h fasting): 187.3^# | Blood glucose levels compared to those of the positive control group ([3]; administered group (12.5, 25, 50 mg/kg)): decreased significantly | Blood glucose levels, summary [3, 6]: decreased in a dose-dependent manner | CRE, Mean ([4]; 12.5 mg/kg/day oral): 0.1 mg/dL | GLU, Mean ([4]; 12.5 mg/kg/day oral): 317.1^# mg/dL | T-CHO, Mean ([4]; 12.5 mg/kg/day oral): 141.6 mg/dL | CRE, Mean ([4]; 25 mg/kg/day oral): 0.1 mg/dL | GLU, Mean ([4]; 25 mg/kg/day oral): 280.0^# mg/dL | T-CHO, Mean ([4]; 25 mg/kg/day oral): 125.0 mg/dL | CRE, Mean ([4]; 50 mg/kg/day oral): 0.1 mg/dL | GLU, Mean ([4]; 50 mg/kg/day oral): 213.6^# mg/dL | T-CHO, Mean ([4]; 50 mg/kg/day oral): 138.7 mg/dL | Glucose, summary [4, 6]: decreased in a dose-dependent manner | GLU compared with disease control group ([4]; all administered groups (12.5, 25, 50 mg/kg)): statistically significantly reduced, and a clear dose dependence was observed | HOMA-IR, Mean ([5]; 12.5 mg/kg/day oral): 12.4 | Insulin, Mean ([5]; 12.5 mg/kg/day oral): 0.7 ng/mL | HOMA-IR, Mean ([5]; 25 mg/kg/day oral): 8.7^# | Insulin, Mean ([5]; 25 mg/kg/day oral): 0.5^# ng/ml | HOMA-IR, Mean ([5]; 50 mg/kg/day oral): 6.9^# | Insulin, Mean ([5]; 50 mg/kg/day oral): 0.5 ng/mL | HOMA-IR compared with that of the disease control group ([5]; 25 and 50 mg/kg administered groups): statistically significantly reduced | Insulin resistance (HOMA-IR), summary [5, 6]: decreased in a dose-dependent manner
